We go through eleven compounds from ChEMBL document CHEMBL1153593, “Recent developments in the design and synthesis of hybrid molecules based on aminoquinoline ring and their antiplasmodial evaluation” (Eur J Med Chem, 2009).

Data set [1] has as its system Plasmodium falciparum. The data set can be described thus: Antimalarial activity against chloroquine-sensitive Plasmodium falciparum D6. Type of data set: functional, organism-based.
Data set [2] has as its system Plasmodium falciparum. Briefly: Antimalarial activity against chloroquine-resistant Plasmodium falciparum TM91C235. Type of data set: functional, organism-based.
For data set [3], the system named is Plasmodium falciparum. Briefly: Antimalarial activity against chloroquine-resistant Plasmodium falciparum Dd2. Type of data set: functional, organism-based.
In data set [4] the test system is Plasmodium falciparum. Briefly: Antimalarial activity against Plasmodium falciparum 3D7. Type of data set: functional, organism-based.
Data set [5] deals with Plasmodium falciparum. The data set can be described thus: Antimalarial activity against chloroquine-resistant Plasmodium falciparum W2. Type of data set: functional, organism-based.
Data set [6] relates to Plasmodium falciparum. The data set can be described thus: Antimalarial activity against Plasmodium falciparum FcB1/Columbia erythrocytes […]. Type of data set: functional, organism-based.
Data set [7] can be described thus: Selectivity index, ratio of CD50 for human MRC5 cells to IC50 for Plasmodium falciparum FcB1/Columbia erythrocytes. Type of data set: functional.
Data set [8] can be described thus: Cytotoxicity against human MRC5 cells. Type of data set: cell-based. As to conditions: read-out: CD50 (the source's name).
In data set [9] the test system is Plasmodium falciparum. The data set can be described thus: Antimalarial activity against chloroquine-resistant Plasmodium falciparum K1. Type of data set: functional, organism-based.
Data set [10] concerns Plasmodium falciparum. Briefly: Antimalarial activity against chloroquine-resistant Plasmodium falciparum FcB1. Type of data set: functional, organism-based.
Data set [11] has as its system Plasmodium falciparum. Briefly: Antimalarial activity against Plasmodium falciparum THAI. Type of data set: functional, organism-based.
The subject of data set [12] is Plasmodium falciparum. Briefly: Antimalarial activity against chloroquine-resistant Plasmodium falciparum W2 at 9 uM. Type of data set: functional.
Data set [13] relates to Plasmodium falciparum. Briefly: Antimalarial activity against chloroquine-sensitive Plasmodium falciparum D10 at 9 uM. Type of data set: functional.
The next data set has as its target Plasmepsin II (Plasmodium falciparum, UniProt P46925). Briefly: Inhibition of Plasmodium falciparum plasmepsin-2.
Data set [14] has as its system Plasmodium falciparum. Briefly: Antimalarial activity as relative mean survival time against Plasmodium falciparum at 40 mg/kg for 4 days. The settings on record: 96 h. Type of data set: functional.
Data set [15] has as its system Plasmodium falciparum. The data set can be described thus: Antimalarial activity against Plasmodium falciparum FcB1R. The settings on record: read-out: ED50 (the source's name).
In data set [16] the test system is Plasmodium yoelii. Briefly: Antimalarial activity as reduced parasitaemia at day 4 against Plasmodium yoelii N67 infected Swiss mice (Mus musculus) compared to chloroquine. The arrangement: scale not given: the % may be the effect or the level left. Type of data set: functional, N-67.
Data set [17] has as its system Plasmodium yoelii. Briefly: Antimalarial activity as mean survival time against Plasmodium yoelii N67 infected Swiss mice (Mus musculus). Type of data set: functional, N-67.
In data set [18] the test system is Plasmodium falciparum. Briefly: Antimalarial activity against Plasmodium falciparum NF54. As to conditions: NF-54.
For another data set, the species on record is Homo sapiens. Briefly: (§1) Terminal half life in human. Type of data set: ADME, organism-based. As to conditions: in vivo.
The test system of data set [19] is Plasmodium berghei. The data set can be described thus: Gametocytocidal activity as infected mosquitoes against Plasmodium berghei at 10 uM/kg. Type of data set: functional.
For data set [20], the system named is Plasmodium berghei. The data set can be described thus: Gametocytocidal activity as oocysts per mosquito against Plasmodium berghei. Type of data set: functional.
Data set [21] is described as follows: as §1. Type of data set: ADME, organism-based. The settings on record: in vivo, read-out: beta t1/2 (converted).

pEC50, pIC50: −log10 of the molar value. ≈ marks a conversion by molar mass, not a printed value.

Sequence of Plasmepsin II (P46925 whole entry): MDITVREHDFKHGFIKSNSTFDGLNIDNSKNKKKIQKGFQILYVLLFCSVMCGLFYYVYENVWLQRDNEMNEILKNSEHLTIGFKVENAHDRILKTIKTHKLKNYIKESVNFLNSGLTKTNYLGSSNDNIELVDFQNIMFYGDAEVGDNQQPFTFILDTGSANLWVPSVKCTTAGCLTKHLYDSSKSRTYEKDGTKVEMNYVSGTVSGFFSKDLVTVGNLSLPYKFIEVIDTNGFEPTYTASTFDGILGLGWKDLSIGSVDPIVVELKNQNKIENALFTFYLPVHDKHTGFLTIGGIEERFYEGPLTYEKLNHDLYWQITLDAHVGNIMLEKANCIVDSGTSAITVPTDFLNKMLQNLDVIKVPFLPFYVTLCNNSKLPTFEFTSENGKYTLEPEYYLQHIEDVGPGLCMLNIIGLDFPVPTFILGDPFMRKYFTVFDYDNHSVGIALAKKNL

On to `CC(C)(C)NCc1c(Nc2ccnc3ccc(Cl)cc23)cc(O)cc1-c1ccc(Cl)cc1`, for which the IC50 in the data set with Plasmodium falciparum [1] and with Plasmodium falciparum [2] was 0.3 ng/mL (≈ 0.643 nM) in each case.

As to `Clc1ccc2c(NCCCN(CCc3ccccc3)Cc3ncc[nH]3)ccnc2c1`, the negative logarithm of the IC50 (pIC50) with Plasmodium falciparum [3] was 6.82; in the data set on Plasmodium falciparum [4], 7.30; with Plasmodium falciparum [5], 6.89.

`CCCCCCCNCCCN1CCN(CCCNc2ccnc3cc(Cl)ccc23)CC1`: in the data set with Plasmodium falciparum [6], the pIC50 was 8.02. Moreover, the “Selectivity Index” value in [7] was less than 326. In addition, the CC50 in data set [8] was less than 3100 nM.

As to `O=C(CN1CCCCC1)Nc1cc(CN2CCOCC2)cc(Nc2ccnc3ccc(Cl)cc23)c1`, the pIC50 with Plasmodium falciparum [9] is 7.91; in the data set with Plasmodium falciparum [10], 8.02; with Plasmodium falciparum [11], 7.89.

Take `COc1ccc(CNCc2cc(NC(=O)CN3CCCCC3)cc(Nc3ccnc4ccc(Cl)cc34)c2)cc1`: in the data set with Plasmodium falciparum [10], the pIC50 is 8.36.

The compound `O=C(CN1CCCCC1)Nc1cc(CN2CCN(c3ccccc3)CC2)cc(Nc2ccnc3ccc(Cl)cc23)c1` had a pIC50 in the data set on Plasmodium falciparum [10] of 8.26.

On to `CCCCNC(=O)C[C@H](O)[C@H](CC(C)C)NC(=O)[C@@H](NC(=O)CCC(=O)N[C@H](C(=O)N[C@H](CCCCN)C(=O)NCCCC(C)Nc1cc(OC)cc2cccnc12)C(C)C)[C@H](C)CC` (some centres undefined), for which the values for the Activity in the data set with Plasmodium falciparum [12] and in the data set with Plasmodium falciparum [13] were 40% and 20%, respectively. In addition, the pIC50 against Plasmepsin II is 3.40.

For the compound `O=C(CN1CCCCC1)Nc1cc(COC(=O)CCCCCC2=CC(=O)c3ccccc3C2=O)cc(Nc2ccnc3ccc(Cl)cc23)c1`, the survival at 40 mg/kg in the data set with Plasmodium falciparum [14] is 178%. Also, in the data set with Plasmodium falciparum [15], the pEC50 is 7.64.

`O=C(CN1CCCCC1)Nc1cc(CN2CCCCC2)cc(Nc2ccnc3ccc(Cl)cc23)c1`: the pIC50 is 8.09 with Plasmodium falciparum [9], 8.00 in the data set with Plasmodium falciparum [10] and 8.17 with Plasmodium falciparum [11].

Turning to `CCN(CC)CCCC(C)Nc1ccnc2cc(Cl)ccc12` (centres undefined) [CHLOROQUINE], the Activity with Plasmodium yoelii [16] amounted to 99.9%. This compound had a Survival in the data set with Plasmodium yoelii [17] of 20 days. In the data set on Plasmodium falciparum [18], this compound had a pIC50 of 6.97 and a minimal inhibitory concentration (MIC) of 0.39 µM (≈ 0.125 µg/mL). For the same compound, the “beta t1/2” value in the data set filed under Homo sapiens came out at 1 months.

For the compound `COc1cc(NC(C)CCCN)c2ncccc2c1` (centres undefined) [PRIMAQUINE], the Activity in the data set with Plasmodium berghei [19] amounted to 28%; in the data set on Plasmodium berghei [20] it was 2.6. Moreover, the half-life in data set [21] is 14 days.
